Reference: PMC12508576, “Implementing a trilineage differentiation in the ReproTracker assay for improved teratogenicity assessment” (Frontiers in Toxicology, 2025)
Like-named read-outs stand apart in the source and are kept apart here.

What was measured:
[1] = tested on: hiPSCs differentiating into neural rosette-like cells
Experimental: (§1) Prior to differentiation, the cells were harvested and dissociated into single cells using Gibco™ TrypLE™ Select (ThermoFisher Scientific; Bleiswijk, Netherlands) for 5 min at 37 °C. Cells were seeded in Matrigel™-coated 24-well plates (ThermoFisher Scientific) in mTeSR™1 containing RevitaCell™ Supplement (ThermoFisher Scientific). […] The cells were cultured in this medium until D3. From D3 until the end of the differentiation protocol (D13) (one-step protocol), cells were cultured in N2B27 medium without ROCK inhibitor or LDN193189. In the case of the replating protocol, cells were replated at D7 and grown in the same medium until day 13. At the end of the differentiation, morphology of the cells was assessed using an Operetta CLS (Revvity) instrument. The expected morphology for each of the lineages, to ensure data acceptance and correct differentiations, is further described in Section 2.9 of the methods section. The trilineage differentiation was replicated in 96-well plates (ThermoFisher Scientific and Revvity Phenoplate) using the same differentiation protocols with an adapted number of cells for the seeding. And termination at D14.
(§2) Cells were harvested, and total RNA was isolated using the Maxwell® RSC simply RNA Cells Kit (cat. no.: #AS1390; Promega) on a Maxwell automated purification instrument (Maxwell RSC 48; Promega). […] Each individual primer was paired with its corresponding fluorophore and quencher and adjusted accordingly depending on gene abundance. Primer and probe sequences are described in Supplementary Table S1.
(§3) Data acceptance was based on the appropriate expression of the assessed biomarker genes in the differentiated populations, at appropriate times during differentiation. Failure to observe the expected temporal expression of key, lineage-specific biomarkers, during the cell fate choices associated with each differentiation protocol, would result in the experiment being invalidated.
(§4) To follow morphological changes throughout the hepatocyte and neural differentiation protocol, brightfield images of the cells were acquired after each medium refresh using an iRiS digital cell imaging microscope (Logos Biosystems) or an Operetta CLS (Revvity) instrument. Images were scored based on visual assessment. Cardiac contractability of cardiomyocytes was evaluated visually using an iRiS digital cell imaging microscope (Logos Biosystems).
(§5) Morphologically, cardiomyocytes are expected to group in fiber-like 3D structures that distribute throughout the entire plate. Aside from morphology, an additional criterion for cardiomyocyte differentiation in each experimental setup is for the contracting mature cardiomyocyte cultures exposed to solvent controls, to reach 75%. […] Neural rosettes are recognized by well-defined cell boundaries and multi-layered cultures. Functional/morphological assessment was completed independently from biomarker data analyses. Morphology scores were confirmed by a second person. Failure to observe the anticipated cell morphology/functionality throughout differentiation would result in invalidation of the experiment. Disruption in the morphology of cardiomyocytes is described as a lack of 3D-fibre-like structures in the cultures as well as a clear lack of contractions. Morphologically aberrant hepatocytes are characterized by a lack of polygonal structures with smaller cytoplasm that in the control cultures and the formation of dark cell-dense structures, commonly indicative of clumps of dead cells with big empty spaces between cell colonies.

[2] = tested on: hiPSCs differentiating into cardiomyocyte-like cells; conditions: lineage call; footnote b: previously published data; ref Jamalpoor et al., 2022; cited from earlier work
[3] = tested on: hiPSCs differentiating into hepatocyte-like cells; conditions: cited from earlier work
[4] = cited from earlier work
[5] = tested on: hiPSCs trilineage differentiation (cardiomyocytes, hepatocytes, neural rosette-like cells); test: ReproTracker trilineage differentiation, overall teratogenicity prediction; conditions: lowest tested concentration with significant decrease of at least one biomarker, trilineage assay; 'N.d. up to x' given as > x
From the text: (§6) In ReproTracker, teratogenicity prediction of test compounds is based on a Weight of Evidence (WoE) approach, which considers both the significant decrease in biomarker expression and the morphological/functional changes following exposure to test compounds throughout differentiation assays.
(§7) This threshold, for any given biomarker, is defined as the average minus one time the standard deviation (SD) of the biomarker expression levels in solvent-exposed control cultures throughout the experiment. Reduced expression of the selected biomarkers below the set threshold in a concentration-dependent manner, upon exposure to a minimum of 2 consecutive non-cytotoxic concentrations would be considered significant (noted as +). A decrease in expression below the threshold without a clear dose-response would lead to an equivocal classification (noted as (+)). An increase in expression or a lack of response would be considered negative (noted as -). Disruption of morphology/functionality of the cultures upon compound exposure at the two highest tested concentrations in all biological replicates is considered as a morphological disruption (noted as +). Absence of significant effects results in a negative score (noted as -).
(§8) For each differentiation assay, the expression of two biomarkers and a morphological/functional read-out are considered. In the hepatocyte and cardiomyocyte differentiation, FOXA2 and BMP4 are considered germ-layer-specific biomarkers, while AFP and MYH6 are considered cell-specific biomarkers, respectively. When applying the WoE approach, the cell-specific biomarkers in hepatocyte and cardiomyocyte differentiation are given higher weight compared to the germ-layer specific biomarkers and morphology/functionality. For the neural differentiation, both PAX6 and NESTIN are given equal weight as they are considered cell-specific markers. In this case, both biomarkers are given higher weight than the morphological read-out.
(§9) Every measurement/observation is assigned a score (positive, negative, or equivocal). […] In the ReproTracker assay, a compound is identified as a teratogen if it receives a positive score in at least one of the trilineage differentiation assays (cardiomyocyte, hepatocyte, or neural differentiation). […] If neither biomarker expression levels nor morphology/functionality are affected in any of the differentiation assays, the response is considered negative.

[6] = tested on: hiPSCs differentiating into hepatocyte-like cells; test: ReproTracker hepatocyte differentiation assay
Experimental: as §1, §2, §3, §4, §5

[7] = tested on: undifferentiated hiPSCs; test: Concentration-range selection and cytotoxicity assessment (AlamarBlue); conditions: lowest concentration that induced a maximum of 20% cytotoxicity in hiPSCs, 7 days
Experimental: In short, hiPSCs were exposed to 20 consecutive concentrations of the test compounds using 1 mM or the maximum soluble concentration as the top concentration. Test compounds were added to the medium prior to the refreshes at D0 and D3. Cytotoxicity was estimated at D7; upon completion of the experiments, cells were incubated with resazurin solution (0.01 mg/mL in PBS) and measured absorbance (excitation 530 nm and emission 590 nm). Results were normalized against vehicle controls (0.1% v/v DMSO).
All compounds were tested at five consecutive concentrations in two-fold dilution steps. The top concentration was determined as the lowest concentration that induced a maximum of 20% cytotoxicity in the concentration range finding experiments. Compounds were then diluted 2-fold using serial dilutions.
Data acceptance for dose-range finding experiments was based on the response to positive and negative assay controls, and compound solubility and cytotoxicity. […] Concentrations of compound(s) inducing cytotoxicity and therefore reducing cell survival below 80% were excluded from further testing in differentiation assays.
Thus, to determine cytotoxicity of the test compounds, undifferentiated hiPSCs were exposed to 20 consecutive concentrations at 2-fold dilutions for 7 days. The lowest concentration that induced a maximum of 20% cytotoxicity in the concentration range finding experiment was applied as top concentration for the differentiation experiments.

[8] = tested on: hiPSCs differentiating into cardiomyocyte-like cells; test: ReproTracker cardiomyocyte differentiation assay
Experimental: as §1, §2, §3, §4, §5

[9] = tested on: hiPSCs trilineage differentiation (cardiomyocytes, hepatocytes, neural rosette-like cells); conditions: human
From the text: as §6, §7, §8, §9

[10] = lineage call, footnote b: previously published data, ref Jamalpoor et al., 2022
[11] = read-out: Human therapeutic cmax, Table 1 (R3 I (2021), Schulz et al. (2020) and others)
[12] = lineage call (positive/equivocal/negative)

## CC(O)CO (centres unmarked) [1,2-propylene glycol]
[1]
  ReproTracker results Neural rosette-like cells: Negative
[2]
  ReproTracker results Cardiomyocyte-like cells: Negative
[3]; [10]
  ReproTracker results Hepatocyte-like cells: Negative
[4]; [11]
  Cmax: 300 to 3100 nM
[5]
  ReproTracker results LOAEL: N.d. up to 1000 µM

## O=c1[nH]cc(F)c(=O)[nH]1 [5-Fluorouracil]
[1]
  ReproTracker results Neural rosette-like cells: Negative
[4]; [11]
  Cmax: 400 to 2300 nM
[6]
  ReproTracker results Hepatocyte-like cells: Negative
[5]
  ReproTracker results LOAEL: N.d. up to 1.3 µM
[7]
  top concentration for the differentiation experiments: 1 µM
[8]
  ReproTracker results Cardiomyocyte-like cells: Negative

## COc1cc(C)c(/C=C/C(C)=C/C=C/C(C)=C/C(=O)O)c(C)c1C [Acitretin]
[1]; [12]
  ReproTracker results Neural rosette-like cells: Positive
[9]
  LOAEL compared with respective human therapeutic Cmax: equal to or below
[4]; [11]
  Cmax: 30 to 900 nM
[6]; [12]
  ReproTracker results Hepatocyte-like cells: Positive
[5]
  ReproTracker results LOAEL: ≤0.2 µM
[8]; [12]
  ReproTracker results Cardiomyocyte-like cells: Positive

## CC1(C)S[C@@H]2[C@H](NC(=O)[C@H](N)c3ccc(O)cc3)C(=O)N2[C@H]1C(=O)O [Amoxicillin]
[1]
  ReproTracker results Neural rosette-like cells: Negative
[2]
  ReproTracker results Cardiomyocyte-like cells: Negative
[4]; [11]
  Cmax: 1400 to 41000 nM

## C[C@@H]1C[C@H]2[C@@H]3CCC4=CC(=O)C=C[C@]4(C)[C@@]3(F)[C@@H](O)C[C@]2(C)[C@@]1(O)C(=O)CO [Dexamethasone]
[1]
  ReproTracker results Neural rosette-like cells: Positive
[9]
  ReproTracker results LOAEL: 1.95 µM
[4]; [11]
  Cmax: 100 to 700 nM
[6]
  ReproTracker results Hepatocyte-like cells: Negative
[8]
  ReproTracker results Cardiomyocyte-like cells: Negative

## CCCCCCCCc1ccc(CCC(N)(CO)CO)cc1 [Fingolimod]
[1]
  ReproTracker results Neural rosette-like cells: Negative
[9]
  LOAEL compared with respective human therapeutic Cmax: higher
  ReproTracker results LOAEL: ≤0.25 µM
[2]
  ReproTracker results Cardiomyocyte-like cells: Positive
[3]; [10]
  ReproTracker results Hepatocyte-like cells: Positive
[4]; [11]
  Cmax: 3 to 50 nM

## OC(Cn1cncn1)(Cn1cncn1)c1ccc(F)cc1F [Fluconazole]
[1]
  NESTIN gene expression at D13: decreased
  PAX6 gene expression at D7: decreased
  ReproTracker results Neural rosette-like cells: Positive
[9]
  ReproTracker results LOAEL: 125 µM
[4]; [11]
  Cmax: 6500 to 19600 nM
[6]
  ReproTracker results Hepatocyte-like cells: Negative
[8]
  ReproTracker results Cardiomyocyte-like cells: Negative

## Nc1nc2ncc(CNc3ccc(C(=O)N[C@@H](CCC(=O)O)C(=O)O)cc3)nc2c(=O)[nH]1 [Folic acid]
[1]
  ReproTracker results Neural rosette-like cells: Negative
[3]; [10]
  ReproTracker results Hepatocyte-like cells: Negative
[4]; [11]
  Cmax: 2 to 10 nM
[5]
  ReproTracker results LOAEL: N.d. up to 1.95 µM

## NS(=O)(=O)c1cc2c(cc1Cl)NCNS2(=O)=O [Hydrochlorothiazide]
[1]
  ReproTracker results Neural rosette-like cells: Negative
[2]
  ReproTracker results Cardiomyocyte-like cells: Positive
[3]; [10]
  ReproTracker results Hepatocyte-like cells: Positive
[4]; [11]
  Cmax: 100 to 200 nM

## NC(=O)NO [Hydroxyurea]
[1]
  ReproTracker results Neural rosette-like cells: Positive
[9]
  LOAEL compared with respective human therapeutic Cmax: equal to or below
[4]; [11]
  Cmax: 263000 nM
[6]
  ReproTracker results Hepatocyte-like cells: Positive
[5]
  ReproTracker results LOAEL: ≤2.0 µM
[8]
  ReproTracker results Cardiomyocyte-like cells: Negative

## Cc1ccc(NC(=O)c2ccc(CN3CCN(C)CC3)cc2)cc1Nc1nccc(-c2cccnc2)n1 [Imatinib]
[1]
  ReproTracker results Neural rosette-like cells: Positive
[9]
  LOAEL compared with respective human therapeutic Cmax: equal to or below
  ReproTracker results LOAEL: 0.1 µM
[4]; [11]
  Cmax: 1500 nM
[6]; [12]
  ReproTracker results Hepatocyte-like cells: Positive
[8]
  ReproTracker results Cardiomyocyte-like cells: Negative

## CC1=C(/C=C/C(C)=C/C=C/C(C)=C\C(=O)O)C(C)(C)CCC1 [Isotretinoin]
[1]
  ReproTracker results Neural rosette-like cells: Positive
[9]
  LOAEL compared with respective human therapeutic Cmax: equal to or below
  ReproTracker results LOAEL: ≤0.0041 µM
[4]; [11]
  Cmax: 4 to 8 nM
[6]
  ReproTracker results Hepatocyte-like cells: Positive
[8]
  ReproTracker results Cardiomyocyte-like cells: Positive

## Cn1cc[nH]c1=S [Methimazole]
[1]
  ReproTracker results Neural rosette-like cells: Positive
[2]
  ReproTracker results Cardiomyocyte-like cells: Positive
[4]; [11]
  Cmax: 4400 to 20200 nM

## CN(Cc1cnc2nc(N)nc(N)c2n1)c1ccc(C(=O)N[C@@H](CCC(=O)O)C(=O)O)cc1 [Methotrexate]
[1]
  ReproTracker results Neural rosette-like cells: Negative
[9]
  LOAEL compared with respective human therapeutic Cmax: equal to or below
  ReproTracker results LOAEL: N.d. up to 0.122 µM
[4]; [11]
  Cmax: 20 to 1100 nM
[6]
  ReproTracker results Hepatocyte-like cells: Negative
[7]
  top concentration for the differentiation experiments: 0.1 µM
[8]
  ReproTracker results Cardiomyocyte-like cells: Negative

## CCN(CC)CCNC(=O)c1cc(Cl)c(N)cc1OC [Metoclopramide]
[1]
  ReproTracker results Neural rosette-like cells: Negative
[2]
  ReproTracker results Cardiomyocyte-like cells: Negative
[3]; [10]
  ReproTracker results Hepatocyte-like cells: Negative
[4]; [11]
  Cmax: 30 to 500 nM
[5]
  ReproTracker results LOAEL: N.d. up to 62.5 µM

## O=C1NC(=O)C(c2ccccc2)(c2ccccc2)N1 [Phenytoin]
[1]
  NESTIN gene expression at D13: without affecting
  PAX6 gene expression at D7: downregulated
  ReproTracker results Neural rosette-like cells: Positive
  morphology of neural rosette-like cells: disrupted
[9]
  LOAEL compared with respective human therapeutic Cmax: equal to or below
  ReproTracker results LOAEL: 31.3 µM
[4]; [11]
  Cmax: 39600 to 79300 nM
[6]
  ReproTracker results Hepatocyte-like cells: Positive
[8]
  ReproTracker results Cardiomyocyte-like cells: Negative

## NC(=O)c1ncn([C@@H]2O[C@H](CO)[C@@H](O)[C@H]2O)n1 [Ribavirin]
[1]
  ReproTracker results Neural rosette-like cells: Positive
[9]
  LOAEL compared with respective human therapeutic Cmax: equal to or below
  ReproTracker results LOAEL: ≤1 µM
[4]; [11]
  Cmax: 3200 nM
[6]
  ReproTracker results Hepatocyte-like cells: Negative
[8]
  ReproTracker results Cardiomyocyte-like cells: Negative

## N[C@@H](CC(=O)N1CCn2c(nnc2C(F)(F)F)C1)Cc1cc(F)c(F)cc1F [Sitagliptin]
[1]
  ReproTracker results Neural rosette-like cells: Negative
[2]
  ReproTracker results Cardiomyocyte-like cells: Negative
[3]; [10]
  ReproTracker results Hepatocyte-like cells: Negative
[4]; [11]
  Cmax: 100 to 900 nM
[5]
  ReproTracker results LOAEL: N.d. up to 1000 µM

## Cc1ncc(C[n+]2csc(CCO)c2C)c(N)n1 [Thiamine]
[1]
  ReproTracker results Neural rosette-like cells: Negative
[2]
  ReproTracker results Cardiomyocyte-like cells: Negative
[3]; [10]
  ReproTracker results Hepatocyte-like cells: Negative
[4]; [11]
  Cmax: 400 nM
[5]
  ReproTracker results LOAEL: N.d. up to 1000 µM

## N#C[C@@H]1CCCN1C(=O)CNC12CC3CC(CC(O)(C3)C1)C2 [Vildagliptin]
[1]
  ReproTracker results Neural rosette-like cells: Positive
[9]
  ReproTracker results LOAEL: 125 µM
[4]; [11]
  Cmax: 600 to 1000 nM
[6]; [12]
  ReproTracker results Hepatocyte-like cells: Negative
[8]
  ReproTracker results Cardiomyocyte-like cells: Negative

## CC(=O)CC(c1ccccc1)c1c(O)c2ccccc2oc1=O (centres unmarked) [Warfarin]
[1]; [12]
  ReproTracker results Neural rosette-like cells: Negative
[3]
  ReproTracker results Hepatocyte-like cells: Positive
[4]; human, in vivo
  Cmax: 3200 to 9700 nM
[5]
  ReproTracker results LOAEL: 62.5 to 250 µM
